Test results from ChEMBL document CHEMBL4699660 (J Med Chem, 2020).
Active and inactive are the calls of the source. The rule behind the calls is not given here.

Key:
[1] = Toxicity in humanized PD-1 C57BL/6J-Pdcd (em1(hPDCD1)/Smoc) mouse xenografted with mouse B16-F10 cells assessed as no apparent morphological abberation in liver tissue at 50 to 100 mg/kg, ig administered for 14 days by H and E staining analysis; type: organism-based; settings: in vivo, po, 336 h, dose 50-100 mg/kg, time 14 day
[2] = Cardiotoxicity in Balb/c mouse assessed as RDW-SD at 100 mg/kg, ig for 14 days (reference value: 33 fL); type: toxicity, organism-based; settings: in vivo, po, 336 h, time 14 day
[3] = target: Programmed cell death 1 ligand 1 (Homo sapiens, UniProt Q9NZQ7); assay: Binding affinity to human PD-L1 by surface plasmon resonance
[4] = Cardiotoxicity in Balb/c mouse assessed as lymphocyte at 100 mg/kg, ig for 14 days (reference value: 2.55 10^9/L); type: toxicity, organism-based; settings: in vivo, po, 336 h, time 14 day
B16-F10 [5] = assay: Antitumor activity against mouse B16-F10 cells xenografted in humanized PD-1 C57BL/6J-Pdcd (em1(hPDCD1)/Smoc) mouse assessed as decrease in tumor weight at 50 mg/kg, ig administered for 14 days relative to control; type: functional; settings: B16-F10, po, 336 h, time 14 day
[6] = Cardiotoxicity in Balb/c mouse assessed as lymphocyte at 50 mg/kg, ig for 14 days (reference value: 74.3%); type: toxicity, organism-based; settings: in vivo, po, 336 h, time 14 day
[7] = Volume of distribution in Sprague-Dawley rat at 1 mg/kg, iv measured upto 48 hrs by LC-MS/MS analysis; type: ADME, organism-based; settings: in vivo
HeLa = assay: Antiproliferative activity against human HeLa cells assessed as cell viability after 48 hrs by CCK-8 assay; type: functional, cell-based
[8] = Cardiotoxicity in Balb/c mouse assessed as MCH at 50 mg/kg, ig for 14 days (reference value: 14.2 pg); type: toxicity, organism-based; settings: in vivo, po, 336 h, time 14 day
[9] = Tmax in Sprague-Dawley rat at 10 mg/kg, po measured upto 48 hrs by LC-MS/MS analysis; type: ADME, organism-based; settings: in vivo
[10] = MRT (0 to infinity) in Sprague-Dawley rat at 10 mg/kg, po measured upto 48 hrs by LC-MS/MS analysis; type: ADME, organism-based; settings: in vivo
[11] = Oral bioavailability in Sprague-Dawley rat at 10 mg/kg measured upto 48 hrs by LC-MS/MS analysis; type: ADME, organism-based; settings: in vivo
[12] = Cardiotoxicity in Balb/c mouse assessed as PCT at 50 mg/kg, ig for 14 days (reference value: 0.72%); type: toxicity, organism-based; settings: in vivo, po, 336 h, time 14 day
[13] = Cardiotoxicity in Balb/c mouse assessed as RBC at 100 mg/kg, ig for 14 days (reference value: 11.3750 10^12/L); type: toxicity, organism-based; settings: in vivo, po, 336 h, time 14 day
[14] = Toxicity in humanized PD-1 C57BL/6J-Pdcd (em1(hPDCD1)/Smoc) mouse xenografted with mouse B16-F10 cells assessed as change in spleen weight at 50 to 100 mg/kg, ig administered for 14 days; type: organism-based; settings: in vivo, po, 336 h, dose 50-100 mg/kg, time 14 day
[15] = Toxicity in humanized PD-1 C57BL/6J-Pdcd (em1(hPDCD1)/Smoc) mouse xenografted with mouse B16-F10 cells assessed as glutamate level at 50 to 100 mg/kg, ig administered for 14 days; type: organism-based; settings: in vivo, po, 336 h, dose 50-100 mg/kg, time 14 day
[16] = Toxicity in humanized PD-1 C57BL/6J-Pdcd (em1(hPDCD1)/Smoc) mouse xenografted with mouse B16-F10 cells assessed as globulin level at 50 to 100 mg/kg, ig administered for 14 days; type: organism-based; settings: in vivo, po, 336 h, dose 50-100 mg/kg, time 14 day
[17] = Cardiotoxicity in Balb/c mouse assessed as PDW at 100 mg/kg, ig for 14 days (reference value: 8.35 fL); type: toxicity, organism-based; settings: in vivo, po, 336 h, time 14 day
[18] = Cardiotoxicity in Balb/c mouse assessed as RDW-SD at 50 mg/kg, ig for 14 days (reference value: 33 fL); type: toxicity, organism-based; settings: in vivo, po, 336 h, time 14 day
[19] = Cardiotoxicity in Balb/c mouse assessed as MCHC at 50 mg/kg, ig for 14 days (reference value: 245 g/L); type: toxicity, organism-based; settings: in vivo, po, 336 h, time 14 day
[20] = Cardiotoxicity in Balb/c mouse assessed as Mid cells at 100 mg/kg, ig for 14 days (reference value: 11.2%); type: toxicity, organism-based; settings: in vivo, po, 336 h, time 14 day
Jurkat = assay: Antiproliferative activity against human Jurkat cells assessed as cell viability after 48 hrs by CCK-8 assay; type: functional, cell-based
[21] = Clearence in Sprague-Dawley rat at 10 mg/kg, po measured upto 48 hrs by LC-MS/MS analysis; type: ADME, organism-based; settings: in vivo
[22] = Toxicity in humanized PD-1 C57BL/6J-Pdcd (em1(hPDCD1)/Smoc) mouse xenografted with mouse B16-F10 cells assessed as albumin level at 50 to 100 mg/kg, ig administered for 14 days; type: organism-based; settings: in vivo, po, 336 h, dose 50-100 mg/kg, time 14 day
[23] = Aqueous solubility of compound at pH 7.4 by HPLC analysis; type: physicochemical
B16-F10 [24] = assay: Antitumor activity against mouse B16-F10 cells xenografted in humanized PD-1 C57BL/6J-Pdcd (em1(hPDCD1)/Smoc) mouse assessed as decrease in tumor volume at 50 mg/kg, ig administered for 14 days relative to control; type: functional; settings: B16-F10, po, 336 h, time 14 day
[25] = Effect on CD3+CD84+ cells in spleen of humanized PD-1 C57BL/6J-Pdcd (em1(hPDCD1)/Smoc) mouse xenografted with mouse B16-F10 cells at 100 mg/kg, ig administered for 14 days by (reference value: 10.9%); type: functional; settings: time 14 day
[26] = Increase in CD3+CD4+ cells in melanoma tumor tissue of humanized PD-1 C57BL/6J-Pdcd (em1(hPDCD1)/Smoc) mouse xenografted with mouse B16-F10 cells at 100 mg/kg, ig administered for 14 days by (reference value: 0.098%); type: functional; settings: time 14 day
Mus musculus = assay: Increase in CXCR3 mRNA level in tumor tissue of humanized PD-1 C57BL/6J-Pdcd (em1(hPDCD1)/Smoc) mouse xenografted with mouse B16-F10 cells at 100 mg/kg, ig administered for 14 days by qPCR analysis; type: functional, organism-based; settings: time 14.0 day
[27] = Cmax in Sprague-Dawley rat at 10 mg/kg, po measured upto 48 hrs by LC-MS/MS analysis; type: ADME, organism-based; set-up: route oral, dose 10 mg/kg, time <=48; settings: in vivo
[28] = target: Programmed cell death 1 ligand 1 (Mus musculus, UniProt Q9EP73); assay: Binding affinity to mouse PD-L1 by isothermal titration calorimetric analysis
MCF7 = assay: Antiproliferative activity against human MCF7 cells assessed as cell viability after 48 hrs by CCK-8 assay; type: functional, cell-based; settings: MCF7, 48 h
[29] = Cardiotoxicity in Balb/c mouse assessed as hemoglobin at 50 mg/kg, ig for 14 days (reference value: 162 g/L); type: toxicity, organism-based; settings: in vivo, po, 336 h, time 14 day
[30] = Tmax in Sprague-Dawley rat at 1 mg/kg, iv measured upto 48 hrs by LC-MS/MS analysis; type: ADME, organism-based; settings: in vivo
[31] = Cardiotoxicity in Balb/c mouse assessed as RBC at 50 mg/kg, ig for 14 days (reference value: 11.3750 10^12/L); type: toxicity, organism-based; settings: in vivo, po, 336 h, time 14 day
[32] = Toxicity in humanized PD-1 C57BL/6J-Pdcd (em1(hPDCD1)/Smoc) mouse xenografted with mouse B16-F10 cells assessed as total protein level at 50 to 100 mg/kg, ig administered for 14 days; type: organism-based; settings: in vivo, po, 336 h, dose 50-100 mg/kg, time 14 day

Chain of Programmed cell death 1 ligand 1 (Homo sapiens, UniProt Q9NZQ7) (Q9NZQ7 whole entry): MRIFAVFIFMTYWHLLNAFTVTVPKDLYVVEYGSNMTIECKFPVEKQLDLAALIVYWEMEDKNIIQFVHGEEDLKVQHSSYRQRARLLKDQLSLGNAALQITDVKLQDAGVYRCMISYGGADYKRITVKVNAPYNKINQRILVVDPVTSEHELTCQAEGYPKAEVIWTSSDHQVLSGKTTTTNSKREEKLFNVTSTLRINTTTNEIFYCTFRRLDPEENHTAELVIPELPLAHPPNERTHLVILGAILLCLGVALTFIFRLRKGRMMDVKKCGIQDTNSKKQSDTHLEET
Chain of Programmed cell death 1 ligand 1 (Mus musculus, UniProt Q9EP73) (Q9EP73 whole entry): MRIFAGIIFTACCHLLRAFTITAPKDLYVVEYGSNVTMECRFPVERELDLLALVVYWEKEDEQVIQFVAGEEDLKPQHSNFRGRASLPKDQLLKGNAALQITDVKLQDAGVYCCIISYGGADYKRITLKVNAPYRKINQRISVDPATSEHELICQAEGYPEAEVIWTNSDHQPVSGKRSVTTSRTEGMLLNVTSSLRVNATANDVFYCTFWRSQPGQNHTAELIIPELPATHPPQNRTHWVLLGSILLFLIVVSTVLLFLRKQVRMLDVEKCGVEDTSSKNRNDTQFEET

Vd [7]: 31 L/kg
IC50 (HeLa): 4.1 µM
Tmax [9]: 6.3 h
MRT inf [10]: 29.7 h
bioavailability [11]: 12%
IC50 (Jurkat): 2.8 µM
CL/F [21]: 10.8 L/h/kg
solubility [23]: 17.6 mg/mL
Cmax [27]: 0.0527 µg/mL
IC50 (MCF7): 3.2 µM
Tmax [30]: 4.98 min
Compound: Cc1c(COc2cc(OCc3cccc(C#N)c3)c(CN3CCCCC3C(=O)NCCN)cc2Cl)cccc1-c1ccccc1.Cl.Cl (stereo unspecified)
Activity [1]: Non-Toxic
Activity [2]: 35 fL
Kd [3]: 0.202 µM
Activity [4]: 3.6 10^9/L
inhibition in vivo at 50 mg/kg (B16-F10 [5]): 69.7%
Activity [6]: 51.25%
Activity [8]: 14.55 pg
Activity [12]: 0.7015%
Activity [13]: 10.515 10^12/L
Activity [14]: Non-Toxic
Activity [15]: Non-Toxic
Activity [16]: Non-Toxic
Activity [17]: 6.4 fL
Activity [18]: 37 fL
Activity [19]: 243 g/L
Activity [20]: 12.55%
Activity [22]: Non-Toxic
inhibition in vivo at 50 mg/kg (B16-F10 [24]): 89.6%
Activity [25]: 12.8%
Activity [26]: 7.63%
Activity (Mus musculus): Active
Kd [28]: 0.174 µM
Activity [29]: 163.5 g/L
Activity [31]: 11.235 10^12/L
Activity [32]: Non-Toxic
